# According to patent US7105184B2, “Cosmetic and/or dermopharmaceutical preparations containing leaf extracts of the plant Argania spinosa” (Cognis France S.A., priority 2000, dated 2006):
# Legend:
# pancreas elastase [1] = target: pancreas elastase (Homo sapiens, UniProt Q9UNI1); test: Inhibition of the elastase activity; format: biochemical; conditions: natural substrate B (elastin/Congo Red); 30 min, 20° C.
# Method: (§1) Serine proteases, such as, for example, elastase or collagenase, bring about the degradation of elastin, proteoglycans and collagen and thus cause a weakening of the connective tissue. In the following test, the inhibiting properties of the extracts toward a pancreas elastase were investigated in two systems, firstly in a chromogenic synthetic substrate A and secondly in a natural substrate B (elastin/Congo Red). The amount of extracts used was 0.3% by weight, and the incubation time was 30 min (20° C.). The inhibition was monitored photometrically at 410 and 520 nm, and the standard used was α1-antitrypsin ([…]).
# pancreas elastase [2] = test: Inhibition of the elastase activity; format: biochemical; conditions: chromogenic synthetic substrate A; 30 min, 20° C.
# Method: as §1
# TIMP-1 = test: Content of TIMP-1 in dermal fibroblast culture with and without UVA radiation; format: cell-based, human; conditions: concentration 0.1 μM
# Method: To carry out the experiment, a fibroblast culture was prepared in a defined culture medium (DMEM) with fetal calf serum and inoculated 2–3 days later with the test substances. […] The abbreviation TIMP is understood as meaning a naturally occurring inhibitor of the metalloproteinase under the name “tissue inhibitor of matrix metalloproteinase”. The MMP and TIMP were determined using two different kits, which are commercially available under the name RPN2610 and RPN2611 from Amersham. The data given is the amount of MMP-1 and TIMP-1 in ng/ml from a test series with triple determination.
# Human MMP-1 = test: Release of MMP-1 from dermal fibroblasts with and without UVA radiation; format: cell-based; conditions: concentration 0.1 μM
# Excerpt: The ability of leaf extracts from Argania spinosa to reduce the toxic effect of UVA rays was investigated. This in vitro test investigates the ability to reduce the content of matrix metalloproteinases, such as, for example, MMP-1, which are released by human fibroblasts following UVA radiation. More MMP are released under the influence of UVA radiation. UVA rays were chosen as the model since they penetrate into the dermis, where they induce oxidative stress, which accelerates skin aging. Furthermore, it is already known that the release of matrix metalloproteinases increases during the normal aging process of the skin. Inhibition of the MMP would thus counteract the aging process of the skin. The in vitro system used was a culture of dermal fibroblasts, and the parameter determined was the release of MMP-1 from these fibroblasts under the influence of UV radiation. To carry out the experiment, a fibroblast culture was prepared in a defined culture medium (DMEM) with fetal calf serum and inoculated 2–3 days later with the test substances. […] The abbreviation TIMP is understood as meaning a naturally occurring inhibitor of the metalloproteinase under the name “tissue inhibitor of matrix metalloproteinase”. The MMP and TIMP were determined using two different kits, which are commercially available under the name RPN2610 and RPN2611 from Amersham. […]
# B16 melanocytes = test: Inhibition of melanogenesis on B16 melanocytes; format: cell-based; conditions: concentration 0.0003% by wt.; ratio of proportion of proteins to content of melanin
# Method: 2. Inhibition of melanogenesis on B16 melanocytes: The B16 melanocytes are cultivated in a defined medium (DMEM with 10% fetal calf serum) and incubated for 3 days at 37° C. and 5% CO2. The growth medium was replaced by the defined medium without calf serum, which comprised a certain content of the extracts to be tested. After further incubation for 3 days, the proportion of intact cells was determined via the content of cell proteins in accordance with the Bradford method (Anal. Biochem. 72, 248–254, 1976), and the content of melanin formed was determined by analyzing the optical density at 475 nm in accordance with the method described by Ando et al. 17th IFSCC Congress—Yokohama, 2, 909–918, 1992.
# The results were determined as activity index in the ratio of proportion of proteins to content of melanin: the greater the index, the higher the inhibition activity and the lower the stimulation of melanogenesis.
# tyrosinase [3] = test: Tyrosinase inhibition in tubo; format: biochemical; conditions: L-DOPA substrate; dopachrome optical density 475 nm; concentration for 50% inhibition
# Method: (§8) Tyrosinase inhibition: L-DOPA was mixed with tyrosinase and the extract to be tested. The optical density of the dopachrome was analyzed at 475 nm. The kinetics were then investigated and the concentration for a 50% strength inhibition (EC50) was determined.
# Tyrosinase [4] = conditions: concentration for 50% inhibition; L-DOPA; dopachrome at 475 nm
# Method: as §8
# [5] = test system: collagenase from Chlostridium histolyticum; test: Collagenase inhibition, substrate C FALGPA; format: biochemical; conditions: 30 min, 20° C.
# Method: (§2) The biochemical test of collagenase inhibition was realized with a collagenase from Chlostridium histolyticum in a chromogenic synthetic substrate C: FALGPA (furylacryloyl-Leu-Gly-Pro-Ala), a specific substrate for collagenase, which […] by the enzyme. This substrate was obtained from SIGMA.
# (§3) The amount of extracts used was 0.3% by weight, and the incubation time was 30 min (20° C.). The inhibition was investigated by determining the optical density “OD” at 234 nm.
# [6] = target: collagenase from Chlostridium histolyticum; test: Collagenase inhibition, chromogenic synthetic substrate C (FALGPA); format: biochemical; conditions: incubation 30 min, 20° C., OD at 234 nm
# Method: as §2, §3
# [7] = test system: TIMP-1 in human dermal fibroblast culture; test: Content of TIMP-1 in supernatant of dermal fibroblasts with and without UVA radiation; format: cell-based
# Excerpt: (§4) The ability of leaf extracts from Argania spinosa to reduce the toxic effect of UVA rays was investigated. This in vitro test investigates the ability to reduce the content of matrix metalloproteinases, such as, for example, MMP-1, which are released by human fibroblasts following UVA radiation. More MMP are released under the influence of UVA radiation. UVA rays were chosen as the model since they penetrate into the dermis, where they induce oxidative stress, which accelerates skin aging. Furthermore, it is already known that the release of matrix metalloproteinases increases during the normal aging process of the skin. Inhibition of the MMP would thus counteract the aging process of the skin.
# (§5) The in vitro system used was a culture of dermal fibroblasts, and the parameter determined was the release of MMP-1 from these fibroblasts under the influence of UV radiation.
# (§6) To carry out the experiment, a fibroblast culture was prepared in a defined culture medium (DMEM) with fetal calf serum and inoculated 2–3 days later with the test substances. […] After the end of the irradiation, the fibroblast culture was incubated again for 2 days, and then, on a sample of the supernatant of the culture solution, the content of MMP-1 and TIMP-1 was determined. […]
# (§7) The MMP and TIMP were determined using two different kits, which are commercially available under the name RPN2610 and RPN2611 from Amersham. […]
# [8] = test system: MMP-1 released by human dermal fibroblasts; test: Release of MMP-1 by dermal fibroblasts with and without UVA radiation; format: cell-based
# Excerpt: as §4, §5, §6, §7
# pancreas elastase, sequence (Q9UNI1 19-258): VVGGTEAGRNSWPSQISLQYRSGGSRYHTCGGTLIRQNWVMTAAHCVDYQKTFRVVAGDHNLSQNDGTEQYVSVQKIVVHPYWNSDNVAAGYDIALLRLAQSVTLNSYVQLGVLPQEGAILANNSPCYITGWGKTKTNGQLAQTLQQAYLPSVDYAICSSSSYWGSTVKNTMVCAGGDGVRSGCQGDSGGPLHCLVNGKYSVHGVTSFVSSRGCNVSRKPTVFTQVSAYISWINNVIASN
# pancreas elastase (Homo sapiens, UniProt Q9UNI1), sequence (Q9UNI1 19-258): as above
molecule,measurement,setting,value
α1-antitrypsin,"Elastase inhibition IC50, Substrate B",pancreas elastase [1],IC50 = 0.034%
same,"Elastase inhibition IC50, Substrate A",pancreas elastase [2],IC50 = 0.01%
"C[C@@H]1C[C@H]2[C@@H]3CCC4=CC(=O)C=C[C@]4(C)[C@@]3(F)[C@@H](O)C[C@]2(C)[C@@]1(O)C(=O)CO [Dexamethasone, dexamethasone]",TIMP-1 in ng/ml,TIMP-1; UVA 20 J/cm^2,19 ng/mL
same,TIMP-1 in ng/ml,TIMP-1; without UVA radiation,39 ng/mL
same,MMP-1 in ng/ml,Human MMP-1; UVA 20 J/cm^2,7 ng/mL
same,MMP-1 in ng/ml,Human MMP-1; without UVA radiation,2 ng/mL
"Oc1ccc(O)cc1 [Hydroquinone, hydroquinone]",Melanin synthesis Index,B16 melanocytes,2.21
same,Tyrosinase in tubo EC50,tyrosinase [3],EC50 = 0.025%
Oc1ccc(O)cc1 [Hydroquinone],EC50 (Tyrosinase in tubo),Tyrosinase [4],EC50 = 0.025%
N[C@@H](CS)C(=O)O [Cystein],"Collagenase inhibition IC50, Substrate C",[5],IC50 = 1.56%
same,IC50 (Collagenase inhibition),[6],IC50 = 1.56%
C[C@@H]1C[C@H]2[C@@H]3CCC4=CC(=O)C=C[C@]4(C)[C@@]3(F)[C@@H](O)C[C@]2(C)[C@@]1(O)C(=O)CO [Dexamethasone],content of TIMP-1 (in words),[7],reduction in the content of TIMP-1
same,content of MMP-1 (in words),[8],content of MMP-1 was already reduced
